{"source": "the NIST ThermoML archive (doi:10.1016/j.fluid.2018.04.007)", "key": {"[1]": {"assay": "refractive index (Na D-line) (dimensionless); xn = mol fraction of the nth substance listed", "conditions": "101 kPa, Liquid, Standard Abbe refractometry"}, "[2]": {"assay": "relative permittivity at various frequencies (dimensionless); xn = mol fraction of the nth substance listed", "conditions": "101 kPa, Liquid, Frequency=1 MHz, Parallel plate capacitor"}}, "note": "Numbers after ± are expanded uncertainties.", "data": [{"smiles": "CCCCCCN", "note": "[1-hexanamine] + CCCCCCCO", "values": [{"measurement": "refractive index", "setting": "[1]; 293.15 K, x2 = 0", "result": "1.41807 ± 0.00033"}, {"measurement": "refractive index", "setting": "[1]; 293.15 K, x2 = 0.056", "result": "1.41916 ± 0.00033"}, {"measurement": "refractive index", "setting": "[1]; 293.15 K, x2 = 0.1018", "result": "1.41999 ± 0.00033"}, {"measurement": "refractive index", "setting": "[1]; 293.15 K, x2 = 0.1463", "result": "1.42077 ± 0.00033"}, {"measurement": "refractive index", "setting": "[1]; 293.15 K, x2 = 0.2047", "result": "1.42171 ± 0.00033"}, {"measurement": "refractive index", "setting": "[1]; 293.15 K, x2 = 0.3044", "result": "1.4231 ± 0.00033"}, {"measurement": "refractive index", "setting": "[1]; 293.15 K, x2 = 0.4059", "result": "1.42423 ± 0.00033"}, {"measurement": "refractive index", "setting": "[1]; 293.15 K, x2 = 0.5044", "result": "1.42503 ± 0.00033"}, {"measurement": "refractive index", "setting": "[1]; 293.15 K, x2 = 0.602", "result": "1.4255 ± 0.00033"}, {"measurement": "refractive index", "setting": "[1]; 293.15 K, x2 = 0.7029", "result": "1.42563 ± 0.00033"}, {"measurement": "refractive index", "setting": "[1]; 293.15 K, x2 = 0.7979", "result": "1.42545 ± 0.00033"}, {"measurement": "refractive index", "setting": "[1]; 293.15 K, x2 = 0.8534", "result": "1.42521 ± 0.00033"}, {"measurement": "refractive index", "setting": "[1]; 293.15 K, x2 = 0.8986", "result": "1.42496 ± 0.00033"}, {"measurement": "refractive index", "setting": "[1]; 293.15 K, x2 = 0.9472", "result": "1.42464 ± 0.00033"}, {"measurement": "refractive index", "setting": "[1]; 298.15 K, x2 = 0", "result": "1.41563 ± 0.00033"}, {"measurement": "refractive index", "setting": "[1]; 298.15 K, x2 = 0.056", "result": "1.41674 ± 0.00033"}, {"measurement": "refractive index", "setting": "[1]; 298.15 K, x2 = 0.1018", "result": "1.41761 ± 0.00033"}, {"measurement": "refractive index", "setting": "[1]; 298.15 K, x2 = 0.1463", "result": "1.4184 ± 0.00033"}, {"measurement": "refractive index", "setting": "[1]; 298.15 K, x2 = 0.2047", "result": "1.41937 ± 0.00033"}, {"measurement": "refractive index", "setting": "[1]; 298.15 K, x2 = 0.3044", "result": "1.4208 ± 0.00033"}, {"measurement": "refractive index", "setting": "[1]; 298.15 K, x2 = 0.4059", "result": "1.42197 ± 0.00033"}, {"measurement": "refractive index", "setting": "[1]; 298.15 K, x2 = 0.5044", "result": "1.4228 ± 0.00033"}, {"measurement": "refractive index", "setting": "[1]; 298.15 K, x2 = 0.602", "result": "1.42331 ± 0.00033"}, {"measurement": "refractive index", "setting": "[1]; 298.15 K, x2 = 0.7029", "result": "1.42351 ± 0.00033"}, {"measurement": "refractive index", "setting": "[1]; 298.15 K, x2 = 0.7979", "result": "1.42339 ± 0.00033"}, {"measurement": "refractive index", "setting": "[1]; 298.15 K, x2 = 0.8534", "result": "1.4232 ± 0.00033"}, {"measurement": "refractive index", "setting": "[1]; 298.15 K, x2 = 0.8986", "result": "1.42299 ± 0.00033"}, {"measurement": "refractive index", "setting": "[1]; 298.15 K, x2 = 0.9472", "result": "1.42271 ± 0.00033"}, {"measurement": "refractive index", "setting": "[1]; 303.15 K, x2 = 0", "result": "1.41321 ± 0.00033"}, {"measurement": "refractive index", "setting": "[1]; 303.15 K, x2 = 0.056", "result": "1.41434 ± 0.00033"}, {"measurement": "refractive index", "setting": "[1]; 303.15 K, x2 = 0.1018", "result": "1.41523 ± 0.00033"}, {"measurement": "refractive index", "setting": "[1]; 303.15 K, x2 = 0.1463", "result": "1.41604 ± 0.00033"}, {"measurement": "refractive index", "setting": "[1]; 303.15 K, x2 = 0.2047", "result": "1.41703 ± 0.00033"}, {"measurement": "refractive index", "setting": "[1]; 303.15 K, x2 = 0.3044", "result": "1.41853 ± 0.00033"}, {"measurement": "refractive index", "setting": "[1]; 303.15 K, x2 = 0.4059", "result": "1.41974 ± 0.00033"}, {"measurement": "refractive index", "setting": "[1]; 303.15 K, x2 = 0.5044", "result": "1.42062 ± 0.00033"}, {"measurement": "refractive index", "setting": "[1]; 303.15 K, x2 = 0.602", "result": "1.42116 ± 0.00033"}, {"measurement": "refractive index", "setting": "[1]; 303.15 K, x2 = 0.7029", "result": "1.42142 ± 0.00033"}, {"measurement": "refractive index", "setting": "[1]; 303.15 K, x2 = 0.7979", "result": "1.42136 ± 0.00033"}, {"measurement": "refractive index", "setting": "[1]; 303.15 K, x2 = 0.8534", "result": "1.4212 ± 0.00033"}, {"measurement": "refractive index", "setting": "[1]; 303.15 K, x2 = 0.8986", "result": "1.42103 ± 0.00033"}, {"measurement": "refractive index", "setting": "[1]; 303.15 K, x2 = 0.9472", "result": "1.42079 ± 0.00033"}, {"measurement": "relative permittivity", "setting": "[2]; 293.15 K, x2 = 0", "result": "3.963 ± 0.37"}, {"measurement": "relative permittivity", "setting": "[2]; 293.15 K, x2 = 0.0503", "result": "4.202 ± 0.38"}, {"measurement": "relative permittivity", "setting": "[2]; 293.15 K, x2 = 0.095", "result": "4.414 ± 0.39"}, {"measurement": "relative permittivity", "setting": "[2]; 293.15 K, x2 = 0.1606", "result": "4.731 ± 0.4"}, {"measurement": "relative permittivity", "setting": "[2]; 293.15 K, x2 = 0.2073", "result": "4.97 ± 0.41"}, {"measurement": "relative permittivity", "setting": "[2]; 293.15 K, x2 = 0.3067", "result": "5.497 ± 0.42"}, {"measurement": "relative permittivity", "setting": "[2]; 293.15 K, x2 = 0.4038", "result": "6.064 ± 0.44"}, {"measurement": "relative permittivity", "setting": "[2]; 293.15 K, x2 = 0.4991", "result": "6.671 ± 0.46"}, {"measurement": "relative permittivity", "setting": "[2]; 293.15 K, x2 = 0.6036", "result": "7.425 ± 0.48"}, {"measurement": "relative permittivity", "setting": "[2]; 293.15 K, x2 = 0.7001", "result": "8.239 ± 0.5"}, {"measurement": "relative permittivity", "setting": "[2]; 293.15 K, x2 = 0.8007", "result": "9.272 ± 0.53"}, {"measurement": "relative permittivity", "setting": "[2]; 293.15 K, x2 = 0.8524", "result": "9.877 ± 0.55"}, {"measurement": "relative permittivity", "setting": "[2]; 293.15 K, x2 = 0.8904", "result": "10.381 ± 0.56"}, {"measurement": "relative permittivity", "setting": "[2]; 293.15 K, x2 = 0.9402", "result": "11.091 ± 0.58"}, {"measurement": "relative permittivity", "setting": "[2]; 298.15 K, x2 = 0", "result": "3.903 ± 0.37"}, {"measurement": "relative permittivity", "setting": "[2]; 298.15 K, x2 = 0.0503", "result": "4.133 ± 0.38"}, {"measurement": "relative permittivity", "setting": "[2]; 298.15 K, x2 = 0.095", "result": "4.339 ± 0.38"}, {"measurement": "relative permittivity", "setting": "[2]; 298.15 K, x2 = 0.1606", "result": "4.644 ± 0.39"}, {"measurement": "relative permittivity", "setting": "[2]; 298.15 K, x2 = 0.2073", "result": "4.882 ± 0.4"}, {"measurement": "relative permittivity", "setting": "[2]; 298.15 K, x2 = 0.3067", "result": "5.392 ± 0.42"}, {"measurement": "relative permittivity", "setting": "[2]; 298.15 K, x2 = 0.4038", "result": "5.934 ± 0.44"}, {"measurement": "relative permittivity", "setting": "[2]; 298.15 K, x2 = 0.4991", "result": "6.508 ± 0.46"}, {"measurement": "relative permittivity", "setting": "[2]; 298.15 K, x2 = 0.6036", "result": "7.224 ± 0.48"}, {"measurement": "relative permittivity", "setting": "[2]; 298.15 K, x2 = 0.7001", "result": "7.981 ± 0.5"}, {"measurement": "relative permittivity", "setting": "[2]; 298.15 K, x2 = 0.8007", "result": "8.951 ± 0.52"}, {"measurement": "relative permittivity", "setting": "[2]; 298.15 K, x2 = 0.8524", "result": "9.521 ± 0.54"}, {"measurement": "relative permittivity", "setting": "[2]; 298.15 K, x2 = 0.8904", "result": "9.983 ± 0.55"}, {"measurement": "relative permittivity", "setting": "[2]; 298.15 K, x2 = 0.9402", "result": "10.642 ± 0.57"}, {"measurement": "relative permittivity", "setting": "[2]; 303.15 K, x2 = 0", "result": "3.848 ± 0.36"}, {"measurement": "relative permittivity", "setting": "[2]; 303.15 K, x2 = 0.0503", "result": "4.07 ± 0.37"}, {"measurement": "relative permittivity", "setting": "[2]; 303.15 K, x2 = 0.095", "result": "4.271 ± 0.38"}, {"measurement": "relative permittivity", "setting": "[2]; 303.15 K, x2 = 0.1606", "result": "4.567 ± 0.39"}, {"measurement": "relative permittivity", "setting": "[2]; 303.15 K, x2 = 0.2073", "result": "4.796 ± 0.4"}, {"measurement": "relative permittivity", "setting": "[2]; 303.15 K, x2 = 0.3067", "result": "5.291 ± 0.42"}, {"measurement": "relative permittivity", "setting": "[2]; 303.15 K, x2 = 0.4038", "result": "5.811 ± 0.43"}, {"measurement": "relative permittivity", "setting": "[2]; 303.15 K, x2 = 0.4991", "result": "6.358 ± 0.45"}, {"measurement": "relative permittivity", "setting": "[2]; 303.15 K, x2 = 0.6036", "result": "7.035 ± 0.47"}, {"measurement": "relative permittivity", "setting": "[2]; 303.15 K, x2 = 0.7001", "result": "7.746 ± 0.49"}, {"measurement": "relative permittivity", "setting": "[2]; 303.15 K, x2 = 0.8007", "result": "8.651 ± 0.52"}, {"measurement": "relative permittivity", "setting": "[2]; 303.15 K, x2 = 0.8524", "result": "9.177 ± 0.53"}, {"measurement": "relative permittivity", "setting": "[2]; 303.15 K, x2 = 0.8904", "result": "9.607 ± 0.54"}, {"measurement": "relative permittivity", "setting": "[2]; 303.15 K, x2 = 0.9402", "result": "10.222 ± 0.56"}]}]}
